According to patent US20220313600A1, “FORMULATIONS OF PSMA IMAGING AGENTS” (Clarity Pharmaceuticals Limited, priority 2019, published 2022):

Assays:
[1] = Stability of the compound of Formula (I) formulated as an aqueous solution; type: physicochemical
Source text: One approach to overcome the observed instability may be to add one or more components that are antioxidants and/or stabilizing agents to the formulation, however the inclusion of further components to a formulation introduces potential reactivity issues between the compound of Formula (I) and these added components. For instance, the addition of an antioxidant may in fact react with the compound of Formula (I) thus potentially changing the structure and function of the compound, which is undesirable.

[2] = Degradation of the compound of Formula (I) when the radiolabelling mixture is mixed at raised temperature; type: physicochemical; details: temperatures higher than about 40° C., for example 60° C.; mixture with Cu radioisotope and acetate buffer
Source text: The solution comprising the mixture of the Cu radioisotope, the compound of Formula (I) and the acetate buffer is then allowed to mix for a time and at a particular temperature in order to allow for complexation of the compound of Formula (I) with the Cu radioisotope. The solution may be mixed using an appropriate apparatus. For example, given the small volumes used, an Eppendorf tube may be an appropriate vessel, such that an Eppendorf Thermomixer may be used to both mix and if required, heat the solution. In an embodiment, the solution is mixed at room temperature. In an embodiment, the solution is mixed at about 40° C. […] While a lower temperature of about 21° C., i.e. room temperature, may be used for mixing, the complexation reaction may not be complete at 5 minutes but is completed by about 15 minutes. […] In an embodiment, the solution is mixed at about 40° C. for about 5 minutes. In an embodiment, the solution is mixed at about 40° C. for about 10 minutes. In another embodiment, the solution is mixed at about 40° C. for about 15 minutes. In another embodiment, the solution is mixed at about 21° C. for about 10 minutes. In another embodiment, the solution is mixed at about 21° C. for about 15 minutes.

Structure (SMILES): O=C(O)CCC(NC(=O)NC(CCCCNC(=O)CCCCCCCNC(=O)C(Cc1ccccc1)NC(=O)C(Cc1ccccc1)NC(=O)CCCC(=O)NC12CNCCNCC(NC(=O)CCCC(=O)NC(Cc3ccccc3)C(=O)NC(Cc3ccccc3)C(=O)NCCCCCCCC(=O)NCCCCC(NC(=O)NC(CCC(=O)O)C(=O)O)C(=O)O)(CNCCNC1)CNCCNC2)C(=O)O)C(=O)O (stereo not drawn) [Formula (I), Sar-bisPSMA]
- stability of the compound in aqueous solution ([1]; formulated as an aqueous solution, no buffer or stabilizing agent): relatively unstable and prone to oxidation and degradation
- stability of the compound in a formulation containing a buffer ([1]; formulation containing a buffer, in the absence of a stabilizing agent): requisite stability
- degradation of the compound on heating [2]: some degradation
